We go through six compounds from US9023789B2, “Amylin analogs and pharmaceutical compositions thereof” (Novo Nordisk A/S, priority 2012, dated 2015).

Each structure is given as a SMILES string. Numbered stars: 1 amine (or outer) side, 2 acyl side, 3 side chain; on linkers, the order of the positions; unused ones are H or OH. Bridge positions count the residues as written; N and C are the ends. Side chains are listed from the residue outwards. Peptide text beside a SMILES is read from it. * marks the point of attachment. C20 diacid = O=C(O)CCCCCCCCCCCCCCCCCCC(=O)*; γGlu = O=C(O)[C@H](CCC(=O)[*:2])N[*:1]

Data set [1] can be described thus: ASSAY (III) ThT fibrillation assay for physical stability. The format is physicochemical. In short, it runs like this: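 Physical stability scored by ThT fluorescence (444 nm excitation, 485 nm emission) tracked every 20 min during 37 °C incubation with 960 rpm shaking, ThT at 1 μM final. Values are replicate means with SD at chosen times; HPLC against pramlintide standard gives initial and post-assay soluble concentrations.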

In data set [2] the target is T1, rat amylin receptor (rat calcitonin receptor + rat RAMP 3) (Rattus norvegicus, UniProt P32214+Q9JJ73).
T1 construct: expressed in transfected cells; host or cells: BHK tk'ts 13 (transient, FuGENE 6), membranes
T1 sequence (P32214 25-479 isoform P32214-2 limits assumed): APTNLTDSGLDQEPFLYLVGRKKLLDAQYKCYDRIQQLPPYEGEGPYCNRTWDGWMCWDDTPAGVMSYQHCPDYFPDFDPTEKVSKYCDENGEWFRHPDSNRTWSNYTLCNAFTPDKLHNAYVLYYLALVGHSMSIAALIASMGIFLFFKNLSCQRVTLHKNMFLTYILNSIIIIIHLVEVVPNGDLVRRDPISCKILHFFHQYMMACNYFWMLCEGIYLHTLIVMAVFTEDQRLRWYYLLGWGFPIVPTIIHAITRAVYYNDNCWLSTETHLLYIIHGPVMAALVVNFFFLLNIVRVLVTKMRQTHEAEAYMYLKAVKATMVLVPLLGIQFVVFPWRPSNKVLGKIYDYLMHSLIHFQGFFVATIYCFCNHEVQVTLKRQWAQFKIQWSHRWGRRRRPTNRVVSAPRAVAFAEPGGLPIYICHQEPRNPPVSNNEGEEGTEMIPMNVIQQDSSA
T1 sequence (Q9JJ73 23-147 partner): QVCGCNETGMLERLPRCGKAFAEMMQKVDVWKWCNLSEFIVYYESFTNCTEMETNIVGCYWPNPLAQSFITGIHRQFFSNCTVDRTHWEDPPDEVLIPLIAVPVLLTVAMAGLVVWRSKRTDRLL
Description: ASSAY (VI) binding to the rat amylin receptor. The following applies: for IC50: binding to rat amylin receptor, read-out: rAmylin-R bind IC50. The method, boiled down: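 Membranes for this rat amylin receptor binding assay came from BHK tk′ts 13 cells. The cells were transiently transfected with rat calcitonin receptor using the FuGENE® 6 reagent from Roche, as the manufacturer recommends. The cells were collected approximately 48 hours after transfection, and membranes were then prepared.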

The mark [3] stands for this setting: Table 7, rat binding selectivity, rCTR IC50 / rAmylin-R IC50.
Where [4] appears, read: Table 7a (preferred compounds), rat binding selectivity, rCTR IC50 / rAmylin-R IC50.
Setting [5] is: ratio of rCTR bind IC50 to rAmylin-R bind IC50.

Regarding `CC[C@H](C)[C@H](NC(=O)[C@H](C)NC(=O)CNC(=O)[C@H](Cc1ccccc1)NC(=O)[C@H](CC(N)=O)NC(=O)[C@@H]1CCCN1C(=O)[C@H](CO)NC(=O)[C@H](CO)NC(=O)[C@H](Cc1c[nH]cn1)NC(=O)[C@H](CCCNC(=N)N)NC(=O)[C@H](CC(C)C)NC(=O)[C@H](Cc1ccccc1)NC(=O)[C@H](CC(N)=O)NC(=O)[C@H](C)NC(=O)[C@H](CC(C)C)NC(=O)[C@H](CCCNC(=N)N)NC(=O)[C@H](CCC(N)=O)NC(=O)[C@@H](NC(=O)[C@H](C)NC(=O)[C@@H]1CSSC[C@H](NC(=O)[C@@H](N)CCCCNC(=O)COCCOCCNC(=O)COCCOCCNC(=O)CC[C@H](NC(=O)CCCCCCCCCCCCCCCCCCC(=O)O)C(=O)O)C(=O)N[C@@H](CC(N)=O)C(=O)N[C@@H]([C@@H](C)O)C(=O)N[C@@H](C)C(=O)N[C@@H]([C@@H](C)O)C(=O)N1)[C@@H](C)O)C(=O)N1CCC[C@H]1C(=O)N[C@@H](CO)C(=O)N[C@@H](CO)C(=O)N[C@H](C(=O)N[C@@H](CC(N)=O)C(=O)N[C@H](C(=O)NCC(=O)N1CCC[C@H]1C(=O)N[C@@H](CC(N)=O)C(=O)N[C@H](C(=O)N[C@@H](Cc1ccc(O)cc1)C(N)=O)[C@@H](C)O)C(C)C)[C@@H](C)O` [Example 98], in data set [1], the “ThT pH 4.0 lag time (h)” value was 4 h. In addition, the concentration for half-maximal inhibition (IC50) in data set [2] (Table 7) came to 137 pM. Moreover, the “Ratio rCT/rAmylin binding” value in data set [2] (setting [3]), in data set [2] (setting [4]) and in data set [2] (setting [5]) was 175.5 in each case.

Regarding `CC[C@H](C)[C@H](NC(=O)[C@H](C)NC(=O)CNC(=O)[C@H](Cc1ccccc1)NC(=O)[C@H](CC(N)=O)NC(=O)[C@@H]1CCCN1C(=O)[C@H](CO)NC(=O)[C@H](CO)NC(=O)[C@H](Cc1c[nH]cn1)NC(=O)[C@H](CCCNC(=N)N)NC(=O)[C@H](CC(C)C)NC(=O)[C@H](Cc1ccccc1)NC(=O)[C@H](CC(N)=O)NC(=O)[C@H](C)NC(=O)[C@H](CC(C)C)NC(=O)[C@H](CCCNC(=N)N)NC(=O)[C@H](CCC(N)=O)NC(=O)[C@@H](NC(=O)[C@H](C)NC(=O)[C@@H]1CSSC[C@H](NC(=O)[C@@H](N)CCCCNC(=O)COCCOCCNC(=O)CC[C@H](NC(=O)CCCCCCCCCCCCCCCCCCC(=O)O)C(=O)O)C(=O)N[C@@H](CC(N)=O)C(=O)N[C@@H]([C@@H](C)O)C(=O)N[C@@H](C)C(=O)N[C@@H]([C@@H](C)O)C(=O)N1)[C@@H](C)O)C(=O)N1CCC[C@H]1C(=O)N[C@@H](CO)C(=O)N[C@@H](CO)C(=O)N[C@H](C(=O)N1CCC[C@H]1C(=O)N[C@H](C(=O)NCC(=O)N[C@@H](CO)C(=O)N[C@@H](CC(N)=O)C(=O)N[C@H](C(=O)N[C@@H](Cc1ccc(O)cc1)C(N)=O)[C@@H](C)O)C(C)C)[C@@H](C)O` [Example 49], in data set [1], the “ThT pH 4.0 lag time (h)” value was found to be 8 h. Moreover, in data set [2] (Table 7), the 50% inhibitory concentration (IC50) turned out to be 1080 pM. Further, the “Ratio rCT/rAmylin binding” value in data set [2] (setting [3]), in data set [2] (setting [4]) and in data set [2] (setting [5]) was 47.7 each time.

Turning to `CC[C@H](C)[C@H](NC(=O)[C@H](C)NC(=O)CNC(=O)[C@H](Cc1ccccc1)NC(=O)[C@H](CC(N)=O)NC(=O)[C@@H]1CCCN1C(=O)[C@H](CO)NC(=O)[C@H](CO)NC(=O)[C@H](Cc1c[nH]cn1)NC(=O)[C@H](CCCNC(=N)N)NC(=O)[C@H](CC(C)C)NC(=O)[C@H](Cc1ccccc1)NC(=O)[C@H](Cc1c[nH]cn1)NC(=O)[C@H](C)NC(=O)[C@H](CC(C)C)NC(=O)[C@H](CCCNC(=N)N)NC(=O)[C@H](CCC(N)=O)NC(=O)[C@@H](NC(=O)[C@H](C)NC(=O)[C@@H]1CSSC[C@H](NC(=O)[C@@H](N)CCCCNC(=O)CC[C@H](NC(=O)CC[C@H](NC(=O)CCCCCCCCCCCCCCCCCCC(=O)O)C(=O)O)C(=O)O)C(=O)N[C@@H](CC(N)=O)C(=O)N[C@@H]([C@@H](C)O)C(=O)N[C@@H](C)C(=O)N[C@@H]([C@@H](C)O)C(=O)N1)[C@@H](C)O)C(=O)N1CCC[C@H]1C(=O)N[C@@H](CO)C(=O)N[C@@H](CO)C(=O)N[C@H](C(=O)N[C@@H](CC(N)=O)C(=O)N[C@H](C(=O)NCC(=O)N[C@@H](CO)C(=O)N[C@@H](CC(N)=O)C(=O)N[C@H](C(=O)N[C@@H](Cc1ccc(O)cc1)C(N)=O)[C@@H](C)O)C(C)C)[C@@H](C)O` [Example 92], the “ThT pH 4.0 lag time (h)” value in data set [1] came out at 8 h. For the same compound, the IC50 in data set [2] (Table 7) was 668 pM. Also, the “Ratio rCT/rAmylin binding” value in data set [2] (setting [3]), in data set [2] (setting [4]) and in data set [2] (setting [5]) was 156.4 throughout.

For the compound `CC[C@H](C)[C@H](NC(=O)[C@H](C)NC(=O)CNC(=O)[C@H](Cc1ccccc1)NC(=O)[C@H](CC(N)=O)NC(=O)[C@H](CCCCNC(=O)CC[C@H](NC(=O)CC[C@H](NC(=O)CCCCCCCCCCCCCCCCCCC(=O)O)C(=O)O)C(=O)O)NC(=O)[C@H](CO)NC(=O)[C@H](CO)NC(=O)[C@H](Cc1c[nH]cn1)NC(=O)[C@H](CCCNC(=N)N)NC(=O)[C@H](CC(C)C)NC(=O)[C@H](Cc1ccccc1)NC(=O)[C@H](CC(=O)O)NC(=O)[C@H](C)NC(=O)[C@H](CC(C)C)NC(=O)[C@H](CCCNC(=N)N)NC(=O)[C@H](CCC(N)=O)NC(=O)[C@@H](NC(=O)[C@H](C)NC(=O)[C@@H]1CSSC[C@H](NC(=O)[C@@H](N)CCCCN)C(=O)N[C@@H](CC(N)=O)C(=O)N[C@@H]([C@@H](C)O)C(=O)N[C@@H](C)C(=O)N[C@@H]([C@@H](C)O)C(=O)N1)[C@@H](C)O)C(=O)N1CCC[C@H]1C(=O)N[C@@H](CO)C(=O)N[C@@H](CO)C(=O)N[C@H](C(=O)N[C@@H](CC(N)=O)C(=O)N[C@H](C(=O)NCC(=O)N[C@@H](CO)C(=O)N[C@@H](CC(=O)O)C(=O)N[C@H](C(=O)N[C@@H](Cc1ccc(O)cc1)C(N)=O)[C@@H](C)O)C(C)C)[C@@H](C)O` [Example 59] (H-KCNTATCATQRLADFLRHSSK([γGlu-γGlu-C20 diacid])NFGAIPSSTNVGSDTY-NH2; disulfide 2-7; N-terminus assumed), the “ThT pH 4.0 lag time (h)” value in data set [1] is recorded as 23 h. For the same compound, in data set [2] (Table 7), the IC50 amounted to 659 pM. Besides, the “Ratio rCT/rAmylin binding” value in data set [2] (setting [3]) and in data set [2] (setting [4]) was 28.5 each time.

Take `CC[C@H](C)[C@H](NC(=O)[C@H](C)NC(=O)CNC(=O)[C@H](Cc1ccccc1)NC(=O)[C@H](CC(N)=O)NC(=O)[C@@H]1CCCN1C(=O)[C@H](CO)NC(=O)[C@H](CO)NC(=O)[C@H](Cc1c[nH]cn1)NC(=O)[C@H](CCCNC(=N)N)NC(=O)[C@H](CC(C)C)NC(=O)[C@H](Cc1ccccc1)NC(=O)[C@H](CCCNC(=N)N)NC(=O)[C@H](C)NC(=O)[C@H](CC(C)C)NC(=O)[C@H](CCCNC(=N)N)NC(=O)[C@H](CCC(N)=O)NC(=O)[C@@H](NC(=O)[C@H](C)NC(=O)[C@@H]1CSSC[C@H](NC(=O)[C@@H](N)CCCCNC(=O)CC[C@H](NC(=O)CCCCCCCCCCCCCCCCCCC(=O)O)C(=O)O)C(=O)N[C@@H](CC(N)=O)C(=O)N[C@@H]([C@@H](C)O)C(=O)N[C@@H](C)C(=O)N[C@@H]([C@@H](C)O)C(=O)N1)[C@@H](C)O)C(=O)N1CCC[C@H]1C(=O)N[C@@H](CO)C(=O)N[C@@H](CO)C(=O)N[C@H](C(=O)N[C@@H](CC(N)=O)C(=O)N[C@H](C(=O)NCC(=O)N[C@@H](CO)C(=O)N[C@@H](CC(N)=O)C(=O)N[C@H](C(=O)N[C@@H](Cc1ccc(O)cc1)C(N)=O)[C@@H](C)O)C(C)C)[C@@H](C)O` [Example 83]: in data set [1], the “ThT pH 4.0 lag time (h)” value is reported as 12 h. The concentration for half-maximal inhibition (IC50) in data set [2] (Table 7) is 2830 pM. The “Ratio rCT/rAmylin binding” value in data set [2] (setting [3]), in data set [2] (setting [4]) and in data set [2] (setting [5]) was 49.7 throughout.

Take `CC[C@H](C)[C@H](NC(=O)[C@H](C)NC(=O)CNC(=O)[C@H](Cc1ccccc1)NC(=O)[C@H](CC(N)=O)NC(=O)[C@@H]1CCCN1C(=O)[C@H](CO)NC(=O)[C@H](CO)NC(=O)[C@H](Cc1c[nH]cn1)NC(=O)[C@H](CCCNC(=N)N)NC(=O)[C@H](CC(C)C)NC(=O)[C@H](Cc1ccccc1)NC(=O)[C@H](C)NC(=O)[C@H](C)NC(=O)[C@H](CC(C)C)NC(=O)[C@H](CCCNC(=N)N)NC(=O)[C@H](CCC(N)=O)NC(=O)[C@@H](NC(=O)[C@H](C)NC(=O)[C@@H]1CSSC[C@H](NC(=O)[C@@H](N)CCCCNC(=O)CC[C@H](NC(=O)CCCCCCCCCCCCCCCCCCC(=O)O)C(=O)O)C(=O)N[C@@H](CC(N)=O)C(=O)N[C@@H]([C@@H](C)O)C(=O)N[C@@H](C)C(=O)N[C@@H]([C@@H](C)O)C(=O)N1)[C@@H](C)O)C(=O)N1CCC[C@H]1C(=O)N[C@@H](CO)C(=O)N[C@@H](CO)C(=O)N[C@H](C(=O)N[C@@H](CC(N)=O)C(=O)N[C@H](C(=O)NCC(=O)N[C@@H](Cc1c[nH]cn1)C(=O)N[C@@H](CC(N)=O)C(=O)N[C@H](C(=O)N[C@@H](Cc1ccc(O)cc1)C(N)=O)[C@@H](C)O)C(C)C)[C@@H](C)O` [Example 93] (H-K([γGlu-C20 diacid])CNTATCATQRLAAFLRHSSPNFGAIPSSTNVGHNTY-NH2; disulfide 2-7; N-terminus assumed): the “ThT pH 4.0 lag time (h)” value in data set [1] is on record as 16 h. For the same compound, the IC50 in data set [2] (Table 7) is 1580 pM. The “Ratio rCT/rAmylin binding” value in data set [2] (setting [3]), in data set [2] (setting [4]) and in data set [2] (setting [5]) was 83.2 in each case.
